# Assays:
# Assay type in all cases: in vivo
# [1] = test system: Surinam grass (Brachiaria decumbens); assay: Test B preemergence
# In short: (§1)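 Visual injury scores, 0 = no effect to 100 = complete control, assigned against controls after 13 to 15 days in the greenhouse. Compounds formulated in non-phytotoxic solvent plus surfactant and applied to soil after planting (pre) or onto foliage of 1- to 4-leaf plants (post).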
# [2] = test system: barnyardgrass (Echinochloa crus-galli); assay: Test B preemergence
# In short: as §1
# [3] = test system: cocklebur (Xanthium strumarium); assay: Test B preemergence
# In short: as §1
# corn (Zea mays) = assay: Test B preemergence
# In short: as §1
# [4] = test system: crabgrass (Digitaria sanguinalis); assay: Test B preemergence
# In short: as §1
# [5] = test system: giant foxtail (Setaria faberii); assay: Test B preemergence
# In short: as §1
# [6] = test system: lambsquarters (Chenopodium album); assay: Test B preemergence
# In short: as §1
# [7] = test system: morning glory (Ipomoea hederacea); assay: Test B preemergence
# In short: as §1
# [8] = test system: pigweed (Amaranthus retroflexus); assay: Test B preemergence
# In short: as §1
# rice (Oryza saliva) = assay: Test B preemergence
# In short: as §1
# [9] = test system: velvetleaf (Abutilon theophrasti); assay: Test B preemergence
# In short: as §1
# Sunflower [10] = assay: Test C preemergence
# [11] = test system: Surinam grass (Brachiaria decumbens); assay: Test C preemergence; settings: for Plant response rating (0 to 100), Surinam grass: visual evaluation after 12 to 14 days
# In short: (§2)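 Visual 0–100 rating vs controls (0 = no effect, 100 = complete control) at 12–14 d, greenhouse. Compounds in non-phytotoxic solvent + surfactant; pre: sprayed after seeding; post: 1–4-leaf plants, 2–18 cm.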
# [12] = test system: bermudagrass (Cynodon dactylon); assay: Test C preemergence; settings: for Plant response rating (0 to 100 where 0 is no effect and 100 is complete control), Bermudagrass: visual evaluation after 12 to 14 days
# In short: as §2
# [13] = test system: cocklebur (Xanthium strumarium); assay: Test C preemergence; settings: for Plant response rating (0 to 100), Cocklebur: visual evaluation after 12 to 14 days
# In short: as §2
# [14] = test system: common ragweed (Ambrosia elatior); assay: Test C preemergence; settings: for Plant response rating (0 to 100), Ragweed, Common: visual evaluation after 12 to 14 days
# In short: as §2
# [15] = test system: crabgrass (Digitaria sanguinalis); assay: Test C preemergence; settings: for Plant response rating (0 to 100), Crabgrass: visual evaluation after 12 to 14 days
# In short: as §2
# [16] = test system: giant foxtail (Setaria faberii); assay: Test C preemergence; settings: for Plant response rating (0 to 100), Foxtail, Giant: visual evaluation after 12 to 14 days
# In short: as §2
# [17] = test system: goosegrass (Eleusine indica); assay: Test C preemergence; settings: for Plant response rating (0 to 100), Goosegrass: visual evaluation after 12 to 14 days
# In short: as §2
# [18] = test system: morningglory (Ipomoea hederacea); assay: Test C preemergence; settings: for Plant response rating (0 to 100), Morningglory: visual evaluation after 12 to 14 days
# In short: as §2
# [19] = test system: velvetleaf (Abutilon theophrasti); assay: Test C preemergence; settings: for Plant response rating (0 to 100), Velvetleaf: visual evaluation after 12 to 14 days
# In short: as §2
# Sunflower [20] = assay: Test C preemergence; settings: visual evaluation after 12 to 14 days
# [21] = Preemergence, Rate 500 g/ha, scale 0 to 100, 0 no effect, 100 complete control
# [22] = preemergence, Rate 125 g/ha, scale of 0 to 100 where 0 is no effect and 100 is complete control, 13 to 15 days
# [23] = Rate 62 g/ha, scale 0 to 100, 0 no effect, 100 complete control
# [24] = Preemergence, Rate 500 g/ha, scale 0 to 100
# [25] = preemergence, Rate 31 g/ha, scale 0 to 100
# [26] = preemergence, Rate 125 g/ha, scale 0 to 100, 0 no effect, 100 complete control
# [27] = Rate 125 g/ha, scale 0 to 100, 0 no effect, 100 complete control
# [28] = preemergence, Rate 250 g/ha, scale 0 to 100, 0 no effect, 100 complete control
smiles,measurement,setting,value
CC(C)(C)c1ccn(C2CCN(c3cccc(OC(F)(F)F)c3)C2=O)n1 (centres unmarked) [Compound 49],"Plant response rating, Surinam grass",[1]; [21],0
same,"Plant response rating, Surinam grass",[1]; [22],0
same,"Plant response rating, Barnyardgrass",[2]; [21],100
same,"Plant response rating, Barnyardgrass",[2]; [22],100
same,"Plant response rating, Cocklebur",[3]; [21],0
same,"Plant response rating, Cocklebur",[3]; [22],0
same,"Plant response rating, Corn",corn (Zea mays); [21],0
same,"Plant response rating, Corn",corn (Zea mays); [22],0
same,"Plant response rating, Crabgrass",[4]; [21],0
same,"Plant response rating, Crabgrass",[4]; [22],0
same,"Plant response rating, Foxtail, Giant",[5]; [21],90
same,"Plant response rating, Foxtail, Giant",[5]; [22],0
same,"Plant response rating, Lambsquarters",[6]; [21],100
same,"Plant response rating, Lambsquarters",[6]; [22],100
same,"Plant response rating, Morningglory",[7]; [21],30
same,"Plant response rating, Morningglory",[7]; [22],0
same,"Plant response rating, Pigweed",[8]; [21],100
same,"Plant response rating, Pigweed",[8]; [22],100
same,"Plant response rating, Rice",rice (Oryza saliva); [21],20
same,"Plant response rating, Rice",rice (Oryza saliva); [22],0
same,"Plant response rating, Velvetleaf",[9]; [21],0
same,"Plant response rating, Velvetleaf",[9]; [22],0
same,"Plant response rating, Sunflower",Sunflower [10]; [23],20
same,"Plant response rating, Sunflower","Sunflower [10]; Rate 500 g/ha, scale 0 to 100",80
same,"Plant response rating, Surinam grass",[11]; [24],80
same,"Plant response rating, Surinam grass",[11]; [23],0
same,"Plant response rating, Surinam grass",[11]; [25],0
same,"Plant response rating (0 to 100), Surinam grass","[11]; preemergence, Rate 250 g/ha",70
same,"Plant response rating, Surinam grass",[11]; [26],0
same,"Plant response rating, Bermudagrass",[12]; [24],100
same,"Plant response rating, Bermudagrass",[12]; [23],100
same,"Plant response rating, Bermudagrass",[12]; [25],0
same,"Plant response rating (0 to 100 where 0 is no effect and 100 is complete control), Bermudagrass","[12]; preemergence, Rate 250 g/ha",100
same,"Plant response rating, Bermudagrass",[12]; [26],100
same,"Plant response rating, Cocklebur",[13]; [24],20
same,"Plant response rating, Cocklebur",[13]; [23],0
same,"Plant response rating, Cocklebur",[13]; [25],0
same,"Plant response rating (0 to 100), Cocklebur","[13]; preemergence, Rate 250 g/ha",0
same,"Plant response rating, Cocklebur",[13]; [26],0
same,"Plant response rating, Ragweed, Common",[14]; [24],90
same,"Plant response rating, Ragweed, Common",[14]; [23],0
same,"Plant response rating, Ragweed, Common",[14]; [25],0
same,"Plant response rating (0 to 100), Ragweed, Common","[14]; preemergence, Rate 250 g/ha",30
same,"Plant response rating, Ragweed, Common",[14]; [26],30
same,"Plant response rating, Crabgrass",[15]; [24],100
same,"Plant response rating, Crabgrass",[15]; [23],100
same,"Plant response rating, Crabgrass",[15]; [25],0
same,"Plant response rating (0 to 100), Crabgrass","[15]; preemergence, Rate 250 g/ha",100
same,"Plant response rating, Crabgrass",[15]; [26],100
same,"Plant response rating, Foxtail, Giant",[16]; [24],100
same,"Plant response rating, Foxtail, Giant",[16]; [23],0
same,"Plant response rating, Foxtail, Giant",[16]; [25],0
same,"Plant response rating (0 to 100), Foxtail, Giant","[16]; preemergence, Rate 250 g/ha",100
same,"Plant response rating, Foxtail, Giant",[16]; [26],100
same,"Plant response rating, Goosegrass",[17]; [24],100
same,"Plant response rating, Goosegrass",[17]; [23],100
same,"Plant response rating, Goosegrass",[17]; [25],0
same,"Plant response rating (0 to 100), Goosegrass","[17]; preemergence, Rate 250 g/ha",100
same,"Plant response rating, Goosegrass",[17]; [26],100
same,"Plant response rating, Morningglory",[18]; [24],30
same,"Plant response rating, Morningglory",[18]; [23],0
same,"Plant response rating, Morningglory",[18]; [25],0
same,"Plant response rating (0 to 100), Morningglory","[18]; preemergence, Rate 250 g/ha",0
same,"Plant response rating, Morningglory",[18]; [26],0
same,"Plant response rating, Velvetleaf",[19]; [24],40
same,"Plant response rating, Velvetleaf",[19]; [23],0
same,"Plant response rating, Velvetleaf",[19]; [25],0
same,"Plant response rating (0 to 100), Velvetleaf","[19]; preemergence, Rate 250 g/ha",30
same,"Plant response rating, Velvetleaf",[19]; [26],0
same,"Plant response rating (0 to 100), Sunflower",Sunflower [20]; Rate 250 g/ha,30
CCC(C)c1ccn(C2CCN(c3ccc(C)c(OC)c3)C2=O)n1 (centres unmarked) [Compound 80],"Plant response rating, Surinam grass",[1]; [21],90
same,"Plant response rating, Surinam grass",[1]; [22],80
same,"Plant response rating, Barnyardgrass",[2]; [21],100
same,"Plant response rating, Barnyardgrass",[2]; [22],0
same,"Plant response rating, Cocklebur",[3]; [21],0
same,"Plant response rating, Cocklebur",[3]; [22],0
same,"Plant response rating, Corn",corn (Zea mays); [21],20
same,"Plant response rating, Corn",corn (Zea mays); [22],0
same,"Plant response rating, Crabgrass",[4]; [21],100
same,"Plant response rating, Crabgrass",[4]; [22],100
same,"Plant response rating, Foxtail, Giant",[5]; [21],100
same,"Plant response rating, Foxtail, Giant",[5]; [22],100
same,"Plant response rating, Lambsquarters",[6]; [21],100
same,"Plant response rating, Lambsquarters",[6]; [22],100
same,"Plant response rating, Morningglory",[7]; [21],100
same,"Plant response rating, Morningglory",[7]; [22],60
same,"Plant response rating, Pigweed",[8]; [21],100
same,"Plant response rating, Pigweed",[8]; [22],100
same,"Plant response rating, Rice",rice (Oryza saliva); [21],90
same,"Plant response rating, Rice",rice (Oryza saliva); [22],60
same,"Plant response rating, Velvetleaf",[9]; [21],70
same,"Plant response rating, Velvetleaf",[9]; [22],0
same,"Plant response rating, Sunflower",Sunflower [10]; [27],30
same,"Plant response rating, Surinam grass",[11]; [23],20
same,"Plant response rating, Surinam grass",[11]; [27],70
same,"Plant response rating (0 to 100), Surinam grass","[11]; preemergence, Rate 250 g/ha",100
same,"Plant response rating (0 to 100), Surinam grass","[11]; preemergence, Rate 500 g/ha",100
same,"Plant response rating, Bermudagrass",[12]; [23],100
same,"Plant response rating, Bermudagrass",[12]; [27],100
same,"Plant response rating (0 to 100 where 0 is no effect and 100 is complete control), Bermudagrass","[12]; preemergence, Rate 250 g/ha",100
same,"Plant response rating (0 to 100 where 0 is no effect and 100 is complete control), Bermudagrass","[12]; preemergence, Rate 500 g/ha",100
same,"Plant response rating, Cocklebur",[13]; [23],0
same,"Plant response rating, Cocklebur",[13]; [27],50
same,"Plant response rating (0 to 100), Cocklebur","[13]; preemergence, Rate 250 g/ha",0
same,"Plant response rating (0 to 100), Cocklebur","[13]; preemergence, Rate 500 g/ha",100
same,"Plant response rating, Ragweed, Common",[14]; [27],100
same,"Plant response rating (0 to 100), Ragweed, Common","[14]; preemergence, Rate 500 g/ha",100
same,"Plant response rating, Ragweed, Common",[14]; [28],100
same,"Plant response rating, Crabgrass",[15]; [23],100
same,"Plant response rating, Crabgrass",[15]; [27],100
same,"Plant response rating (0 to 100), Crabgrass","[15]; preemergence, Rate 250 g/ha",100
same,"Plant response rating (0 to 100), Crabgrass","[15]; preemergence, Rate 500 g/ha",100
same,"Plant response rating, Foxtail, Giant",[16]; [23],0
same,"Plant response rating, Foxtail, Giant",[16]; [27],100
same,"Plant response rating (0 to 100), Foxtail, Giant","[16]; preemergence, Rate 250 g/ha",40
same,"Plant response rating (0 to 100), Foxtail, Giant","[16]; preemergence, Rate 500 g/ha",50
same,"Plant response rating, Goosegrass",[17]; [23],100
same,"Plant response rating, Goosegrass",[17]; [27],100
same,"Plant response rating (0 to 100), Goosegrass","[17]; preemergence, Rate 250 g/ha",100
same,"Plant response rating (0 to 100), Goosegrass","[17]; preemergence, Rate 500 g/ha",100
same,"Plant response rating, Morningglory",[18]; [23],0
same,"Plant response rating, Morningglory",[18]; [27],20
same,"Plant response rating (0 to 100), Morningglory","[18]; preemergence, Rate 500 g/ha",100
same,"Plant response rating, Morningglory",[18]; [28],100
same,"Plant response rating, Velvetleaf",[19]; [27],40
same,"Plant response rating (0 to 100), Velvetleaf","[19]; preemergence, Rate 500 g/ha",100
same,"Plant response rating, Velvetleaf",[19]; [28],70
same,"Plant response rating (0 to 100), Sunflower",Sunflower [20]; Rate 500 g/ha,60

# — patent publication US7138361B2, “Herbicidal heterocycles” (E. I. du Pont de Nemours and Company, priority 2000, dated 2006)
